Experimental data from the NIST ThermoML archive (doi:10.1021/je900027h).
± gives the expanded uncertainty stated by the source.

Details: Crystal; DTA

- Normal melting temperature: 104.92 ± 0.5 °C
SMILES: c1ccc2c(c1)ccc1ccccc12 [phenanthrene]
